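These data come from cells grown in 96-well plates and exposed to compound for 48 hours at five concentrations. GI50: concentration for 50% inhibition of growth.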 Calls of active or inactive are those of the source. Rule as the data show it: active = GI50 up to about 1.1 µM and inactive = higher.
Tests used:
Test in all cases: growth of human tumour cells (NCI), 48 h
786-0 = tested on: 786-0
A498 = tested on: A498
A549 = tested on: A549
ACHN = tested on: ACHN
BT-549 = tested on: BT-549
CCRF-CEM = tested on: CCRF-CEM
COLO 205 = tested on: COLO 205
DU-145 = tested on: DU-145
EKVX = tested on: EKVX
HCT-116 = tested on: HCT-116
HCT-15 = tested on: HCT-15
HL-60 = tested on: HL-60
HOP-62 = tested on: HOP-62
HOP-92 = tested on: HOP-92
HT-29 = tested on: HT-29
Hs-578T = tested on: Hs-578T
IGROV-1 = tested on: IGROV-1
K562 = tested on: K562
KM12 = tested on: KM12
LOX IMVI = tested on: LOX IMVI
M14 = tested on: M14
MCF7 = tested on: MCF7
MDA-MB-231 = tested on: MDA-MB-231
MDA-MB-435 = tested on: MDA-MB-435
MDA-N = tested on: MDA-N
MOLT-4 = tested on: MOLT-4
Malme-3M = tested on: Malme-3M
NCI-H226 = tested on: NCI-H226
NCI-H23 = tested on: NCI-H23
NCI-H460 = tested on: NCI-H460
NCI/ADR-RES = tested on: NCI/ADR-RES
OVCAR-3 = tested on: OVCAR-3
OVCAR-4 = tested on: OVCAR-4
OVCAR-5 = tested on: OVCAR-5
OVCAR-8 = tested on: OVCAR-8
PC-3 = tested on: PC-3
RPMI-8226 = tested on: RPMI-8226
RXF 393 = tested on: RXF 393
SF-268 = tested on: SF-268
SF-295 = tested on: SF-295
SF-539 = tested on: SF-539
SK-MEL-28 = tested on: SK-MEL-28
SK-MEL-2 = tested on: SK-MEL-2
SK-MEL-5 = tested on: SK-MEL-5
SK-OV-3 = tested on: SK-OV-3
SN12C = tested on: SN12C
SNB-19 = tested on: SNB-19
SNB-75 = tested on: SNB-75
SR = tested on: SR
SW-620 = tested on: SW-620
T47D = tested on: T47D
TK-10 = tested on: TK-10
U-251 = tested on: U-251
UACC-257 = tested on: UACC-257
UACC-62 = tested on: UACC-62
UO-31 = tested on: UO-31
CAKI-1 = tested on: CAKI-1
HCC 2998 = tested on: HCC 2998
NCI-H522 = tested on: NCI-H522

Measured: GI50

CCOC(=O)C(Cl)(Cl)/S(=N\S(=O)(=O)c1ccccc1)NC(=O)c1ccccc1 (stereo not given)
inactive: 786-0 > 100 µM | A498 > 100 µM | A549 > 100 µM | ACHN > 100 µM | BT-549 > 100 µM | CCRF-CEM > 100 µM | COLO 205 > 100 µM | DU-145 > 100 µM | EKVX > 100 µM | HCT-116 > 100 µM | HOP-62 > 100 µM | HOP-92 > 100 µM | HT-29 > 100 µM | Hs-578T > 100 µM | IGROV-1 > 100 µM | K562 > 100 µM | KM12 > 100 µM | LOX IMVI > 100 µM | M14 > 100 µM | MCF7 > 100 µM | MDA-MB-231 > 100 µM | MDA-MB-435 > 100 µM | MDA-N > 100 µM | MOLT-4 > 100 µM | Malme-3M > 100 µM | NCI-H226 > 100 µM | NCI-H23 > 100 µM | NCI-H460 > 100 µM | NCI/ADR-RES > 100 µM | OVCAR-3 > 100 µM | OVCAR-4 > 100 µM | OVCAR-5 > 100 µM | OVCAR-8 > 100 µM | PC-3 > 100 µM | RPMI-8226 > 100 µM | RXF 393 > 100 µM | SF-268 > 100 µM | SF-295 > 100 µM | SF-539 > 100 µM | SK-MEL-28 > 100 µM | SK-MEL-2 > 100 µM | SK-MEL-5 > 100 µM | SK-OV-3 > 100 µM | SN12C > 100 µM | SNB-19 > 100 µM | SNB-75 > 100 µM | SR > 100 µM | SW-620 > 100 µM | T47D > 100 µM | TK-10 > 100 µM | U-251 > 100 µM | UACC-257 > 100 µM | UACC-62 > 100 µM | UO-31 > 100 µM
active: HL-60 0.65 µM
> 100 µM: HCT-15

C=C1C[C@@H]2O[C@H]3[C@H]4[C@@H](C[C@@H](C)[C@@H](OC(C)=O)[C@H]42)[C@@H](C)CO[C@@]3(C)[C@H](OC(=O)CCCCCCC)CC1=O
inactive: 786-0 15.7 µM | A498 17.2 µM | A549 18.4 µM | ACHN 16 µM | BT-549 18.1 µM | CAKI-1 19.4 µM | CCRF-CEM 5.85 µM | COLO 205 13.9 µM | DU-145 17.6 µM | EKVX 15.5 µM | HCC 2998 17 µM | HCT-116 15.1 µM | HOP-62 16 µM | HOP-92 > 10 µM | HT-29 20.9 µM | Hs-578T 17.1 µM | IGROV-1 21.5 µM | K562 > 10 µM | KM12 12.1 µM | LOX IMVI 16.5 µM | M14 15.6 µM | MCF7 18.5 µM | MDA-MB-231 20.8 µM | MDA-MB-435 16.5 µM | MDA-N 16.8 µM | MOLT-4 18.7 µM | NCI-H226 21.2 µM | NCI-H23 20.6 µM | NCI-H460 11.9 µM | NCI-H522 19.6 µM | NCI/ADR-RES 17.9 µM | OVCAR-3 18.2 µM | OVCAR-5 7.29 µM | OVCAR-8 13.6 µM | PC-3 9.82 µM | RPMI-8226 2.64 µM | SF-268 18.8 µM | SF-295 19.5 µM | SF-539 22 µM | SK-MEL-28 14.9 µM | SK-MEL-2 19.2 µM | SK-MEL-5 15 µM | SN12C 16 µM | SNB-19 26.5 µM | SNB-75 12.1 µM | SR 16 µM | SW-620 15.2 µM | T47D 15.4 µM | TK-10 17.1 µM | U-251 16.8 µM | UACC-257 14.4 µM | UACC-62 16.5 µM | UO-31 15.6 µM
14.1 µM: HCT-15
